How the values were obtained:
[1] = tested on: αSyn(61–140); assay: ThT aggregation assay of αSyn(61–140) under quiescent conditions; type: biochemical; conditions: concentrations up to 50 µM
Method: Figure 5 Modulation of aggregation of truncated αSyn variants by SMAhp (left) and LENhp (right) in ThT assay under quiescent conditions. Buffer, 30 mM Tris-HCl, pH 7.4, with indicated salt concentration. ThT time course and AFM images of (A,C) 25 µM αSyn(1–95) or (B,D) 25 µM αSyn(61–140) in the absence (gray) and presence of SMAhp (A,B) or LENhp (C,D). Frames around the AFM images correspond to the frames in the kinetics diagrams for indication of the sample; the same color coding for SMAhp and LENhp concentrations as in the kinetic diagrams was used for the AFM image frames.
αSyn(1–95) and αSyn(61–140) were expressed from codon-optimized gene sequences in the pT7–7 vector in Escherichia coli BL21DE3, without N-terminal acetylation. Expression and purification were performed as for full-length αSyn, with the difference that, for αSyn(1–95), the anion exchange chromatography step was replaced by cation exchange chromatography using a 5 mL HiTrap SP FF column (Cytiva, Marlborough, MA, USA) and 10 mM sodium acetate buffer, pH 5, with elution in a NaCl gradient from 0 to 500 mM.
Aggregation kinetics were monitored in Greiner 96-well half-area, clear bottom, low-binding plates via ThT fluorescence in a BMG CLARIOstar plate reader. […] Plates were covered with sealing tape, placed in the plate reader, heated to 37 °C, and ThT fluorescence was read using bottom optics.

[2] = Net charge at neutral pH; type: physicochemical
[3] = target: αSyn (Homo sapiens, UniProt P37840); conditions: agitation conditions; ref [62]; cited from earlier work
[4] = tested on: β-wrapin AS10; conditions: cited from earlier work

NCCCNCCCCNCCCN [spermine]
effect of spermine on ThT fluorescence of αSyn(61–140) [1]: did not lead to any increase in ThT fluorescence | net charge at neutral pH [2]: +4 | effect on αSyn fibril formation under agitation [3]: promote αSyn fibril formation

IAPP: islet amyloid polypeptide, disease-related amyloid protein (KCNTATCATQRLANFLVHSSNNFGAILSSTNVGSNTY; Islet amyloid polypeptide; UniProt P10997 34-70, looked up)
NMR pattern with AS10 (glycine region and downfield amide resonances) ([4]; 1H-15N HSQC NMR of 15N-AS10, ref [57]): The same pattern has been observed before | Kd ([4]; read-out: KD for AS10, ref [57]): 910 nM | affinity for AS10 ([4]; ref [56,57,58]): sub-micromolar affinity

From publication PMC10671648, “Nucleation of α-Synuclein Amyloid Fibrils Induced by Cross-Interaction with β-Hairpin Peptides Derived from Immunoglobulin Light Chains” (International Journal of Molecular Sciences, 2023)
